Measurements reported in patent US4975538A, “Antibiotic sulfonylaminocarbonyl activated beta-lactams” (The Upjohn Company, priority 1989, dated 1990).
In brackets after ≈: the same amount, converted by molar mass.

Assays:
Test in all cases: Minimum Inhibitory Concentration (MIC), agar dilution in Mueller Hinton Agar
Type in all cases: cell-based
[1] = tested on: Citrobacter Freundli; details: 20 h, culture number 3507
Experimental: (§1) The compounds of this invention and their respective pharmaceutically acceptable salts have antibiotic activity against a variety of gram-negative bacteria including Escherichia coli, Klebsiella pneumoniae, and Pseudomonas aeruginosa. The compounds are useful for treating bacterial infections in animals, including and most preferably humans. Compounds of the invention are tested for in vitro antimicrobial activity using standard testing procedures such as the determination of minimum inhibitory concentration (MIC) by methods described in "Methods for Dilution Antimicrobial Susceptibility Tests for Bacteria That Grow Aerobically" (M7-A) Published December 1985 by the National Committee for Clinical Laboratory Standards, 771 East Lancaster Avenue, Villanova, Pa. 19084. Briefly, MIC values are determined in unsupplemented Mueller Hinton Agar (MHA). The compounds tested are diluted serially into molten MHA at 47° C. The agar is poured into petri dishes and allowed to harden. The various bacteria used for testing are grown overnight on MHA at 35° C. and transferred to Tryptiease Soy Broth (TSB) until a turbidity of 0.5 McFarland standard is obtained. The bacteria are diluted one to twenty in TSB and inoculated on the plates (1 μl using a Steers replicator).

[2] = tested on: Enterobacter Cloacae; details: 20 h
Experimental: as §1

[3] = tested on: Escherichia Coli; details: 20 h
Experimental: as §1

[4] = tested on: Klebsiella Oxytoca; details: 20 h
Experimental: as §1

[5] = tested on: Klebsiella Pneumoniae; details: 20 h, culture number 58
Experimental: as §1

[6] = tested on: Proteus Vulgaris; details: 20 h, culture number 9679
Experimental: as §1

[7] = tested on: Pseudomonas Aeruginosa; details: 20 h
Experimental: as §1

[8] = tested on: Serratia Marcescens; details: 20 h
Experimental: as §1

[9] = tested on: Staphylococcus Aureus; details: 20 h
Experimental: as §1

[10] = tested on: Streptococcus Faecalis; details: Enterococcus faecalis, 20 h; culture number 694
Experimental: as §1

[11] = tested on: Streptococcus Pneumoniae; details: 20 h, culture number 41
Experimental: as §1

[12] = tested on: Streptococcus Pyogenes; details: 20 h, culture number 152
Experimental: as §1

SMILES: CC(C)(O/N=C(\C(=O)N[C@H]1CN(C(=O)NS(=O)(=O)N2CCN(NC(=O)c3cc(=O)c(O)cn3C3CC3)C2=O)C1=O)c1csc(N)n1)C(=O)O [Compound E42, Propanoic acid, 2-[[[1-(2-amino-4-thiazolyl)-2-[[1-[[[[3-[[(1-cyclopropyl-1,4-dihydro-5-hydroxy-4-oxo-2-pyridinyl)carbonyl]amino]-2-oxo-1-imidazolidinyl]sulfonyl]amino]carbonyl]-2-oxo-3-azetidinyl]amino]-2-oxoethylidene]amino]oxy]-2-methyl-, [S-(Z)]-]
- MIC [1]: 0.5 µg/mL (≈ 0.69 µM)
- MIC ([2]; culture number 9381): 64 µg/mL (≈ 88.3 µM)
- MIC ([2]; culture number 9382): 4 µg/mL (≈ 5.52 µM)
- MIC ([3]; culture number 9379): 0.06 µg/mL (≈ 0.0828 µM)
- MIC ([3]; culture number 9380): 0.03 µg/mL (≈ 0.0414 µM)
- MIC ([3]; culture number 9451): 0.125 µg/mL (≈ 0.172 µM)
- MIC ([4]; culture number 9383): 1 µg/mL (≈ 1.38 µM)
- MIC ([4]; culture number 9384): 0.5 µg/mL (≈ 0.69 µM)
- MIC [5]: 2 µg/mL (≈ 2.76 µM)
- MIC [6]: 2 µg/mL (≈ 2.76 µM)
- MIC ([7]; culture number 231): 16 µg/mL (≈ 22.1 µM)
- MIC ([7]; culture number 9191): 16 µg/mL (≈ 22.1 µM)
- MIC ([8]; culture number 6888): 0.5 µg/mL (≈ 0.69 µM)
- MIC ([9]; culture number 3665): > 64 µg/mL
- MIC ([9]; culture number 6685): > 64 µg/mL
- MIC ([9]; culture number 9218): > 64 µg/mL
- MIC [10]: > 64 µg/mL
- MIC [11]: > 64 µg/mL
- MIC [12]: 64 µg/mL (≈ 88.3 µM)

SMILES: Nc1nc(/C(=N/OCC(=O)O)C(=O)N[C@H]2CN(C(=O)NS(=O)(=O)N3CCN(C(=O)c4cc(=O)c(O)c[nH]4)CC3)C2=O)cs1 [Compound E19, Acetic acid, 2-[[[1-(2-amino-4-thiazolyl)-2-[[1-[[[[4-[(1,4-dihydro-5-hydroxy-4-oxo-2-pyridinyl)carbonyl]-1-piperazinyl]sulfonyl]amino]carbonyl]-2-oxo-3-azetidinyl]amino]-2-oxoethylidene]amino]oxy]-, [S-(Z)]-]
- MIC [1]: 2 µg/mL (≈ 3.12 µM)
- MIC ([2]; culture number 9381): 128 µg/mL (≈ 200 µM)
- MIC ([2]; culture number 9382): 16 µg/mL (≈ 24.9 µM)
- MIC ([3]; culture number 9379): 0.25 µg/mL (≈ 0.39 µM)
- MIC ([3]; culture number 9380): 0.06 µg/mL (≈ 0.0935 µM)
- MIC ([3]; culture number 9451): 0.125 µg/mL (≈ 0.195 µM)
- MIC ([4]; culture number 9383): 64 µg/mL (≈ 99.8 µM)
- MIC ([4]; culture number 9384): 0.5 µg/mL (≈ 0.779 µM)
- MIC [5]: 8 µg/mL (≈ 12.5 µM)
- MIC [6]: 4 µg/mL (≈ 6.23 µM)
- MIC ([7]; culture number 231): 8 µg/mL (≈ 12.5 µM)
- MIC ([7]; culture number 9191): 8 µg/mL (≈ 12.5 µM)
- MIC ([8]; culture number 6888): 1 µg/mL (≈ 1.56 µM)
- MIC ([9]; culture number 3665): > 128 µg/mL
- MIC ([9]; culture number 6685): > 128 µg/mL
- MIC ([9]; culture number 9218): > 128 µg/mL
- MIC [10]: > 128 µg/mL
- MIC [11]: > 128 µg/mL
- MIC [12]: 64 µg/mL (≈ 99.8 µM)

SMILES: CC(C)(O/N=C(\C(=O)N[C@H]1CN(C(=O)NS(=O)(=O)n2nc(-c3cc(=O)c(O)c[nH]3)[nH]c2=O)C1=O)c1csc(N)n1)C(=O)O [E23 (a), propanoic acid, 2-[[[1-(2-amino-4-thiazolyl)-2-[[1-[[[[3-(1,4-dihydro-5-hydroxy-4-oxo-2-pyridinyl)-2,5-dihydro-5-oxo-1H-1,2,4-triazol-1-yl]sulfonyl]amino]carbonyl]-2-oxo-3-azetidinyl]amino]-2-oxoethylidene]amino]oxy]-2-methyl-, [S-(Z)]-]
- MIC [1]: 0.03 µg/mL (≈ 0.0468 µM)
- MIC ([2]; culture number 9381): 4 µg/mL (≈ 6.24 µM)
- MIC ([2]; culture number 9382): 0.5 µg/mL (≈ 0.781 µM)
- MIC ([3]; culture number 9379): < 0.008 µg/mL
- MIC ([3]; culture number 9380): < 0.008 µg/mL
- MIC ([3]; culture number 9451): < 0.008 µg/mL
- MIC ([4]; culture number 9383): 0.03 µg/mL (≈ 0.0468 µM)
- MIC ([4]; culture number 9384): 0.03 µg/mL (≈ 0.0468 µM)
- MIC [5]: 0.25 µg/mL (≈ 0.39 µM)
- MIC [6]: 0.03 µg/mL (≈ 0.0468 µM)
- MIC ([7]; culture number 231): 0.5 µg/mL (≈ 0.781 µM)
- MIC ([7]; culture number 9191): 0.5 µg/mL (≈ 0.781 µM)
- MIC ([8]; culture number 6888): 0.015 µg/mL (≈ 0.0234 µM)
- MIC ([9]; culture number 3665): > 64 µg/mL
- MIC ([9]; culture number 6685): > 64 µg/mL
- MIC ([9]; culture number 9218): > 64 µg/mL
- MIC [10]: > 64 µg/mL
- MIC [11]: > 64 µg/mL
- MIC [12]: 16 µg/mL (≈ 25 µM)

SMILES: Nc1nc(C(=NOCC(=O)O)C(=O)NC2CN(C(=O)NS(=O)(=O)N3CC(CNC(=O)c4cc(=O)c(O)c[nH]4)OC3=O)C2=O)cs1 (stereo not drawn) [E27 (a), [[[1-(2-amino-4-thiazolyl)-2-[[1-[[[[4-[[(1,4-dihydro-5-hydroxy-4-oxo-2-pyridinyl)carbonyl]amino]-[2-oxo-5-oxazolydinyl]methyl]sulfonyl]amino]carbonyl]-2-oxo-3-azetidinyl]amino]-2-oxoethylidene]amino]oxy] acetic acid]
- MIC [1]: 0.25 µg/mL (≈ 0.372 µM)
- MIC ([2]; culture number 9381): 128 µg/mL (≈ 191 µM)
- MIC ([2]; culture number 9382): 2 µg/mL (≈ 2.98 µM)
- MIC ([3]; culture number 9379): < 0.06 µg/mL
- MIC ([3]; culture number 9380): < 0.06 µg/mL
- MIC ([3]; culture number 9451): < 0.06 µg/mL
- MIC ([4]; culture number 9383): 4 µg/mL (≈ 5.96 µM)
- MIC ([4]; culture number 9384): 0.25 µg/mL (≈ 0.372 µM)
- MIC [5]: 0.5 µg/mL (≈ 0.745 µM)
- MIC [6]: 0.5 µg/mL (≈ 0.745 µM)
- MIC ([7]; culture number 231): 4 µg/mL (≈ 5.96 µM)
- MIC ([7]; culture number 9191): 64 µg/mL (≈ 95.3 µM)
- MIC ([8]; culture number 9888): 0.5 µg/mL (≈ 0.745 µM)
- MIC [12]: 16 µg/mL (≈ 23.8 µM)

SMILES: CC(C)(O/N=C(\C(=O)N[C@H]1CN(C(=O)NS(=O)(=O)N2CCN(NC(=O)c3cccc(=O)n3O)C2=O)C1=O)c1csc(N)n1)C(=O)O [E42 (c), Propanoic acid, 2-[[[1-(2-amino-4-thiazolyl)-2[[1-[[[[3-[[(1,6-dihydro-1-hydroxy-2-oxo-6-pyridinyl)carbonyl]amino]-2-oxo-1-imidazolidinyl]sulfonyl]amino]carbonyl]-2-oxo-3-azetidinyl]-amino]-2-oxoethylidene]amino]oxy]-2-methyl-, [S-(Z)]-]
- MIC [1]: 0.5 µg/mL (≈ 0.73 µM)
- MIC ([2]; culture number 9381): > 64 µg/mL
- MIC ([2]; culture number 9382): 1 µg/mL (≈ 1.46 µM)
- MIC ([3]; culture number 9379): 0.25 µg/mL (≈ 0.365 µM)
- MIC ([3]; culture number 9380): 0.25 µg/mL (≈ 0.365 µM)
- MIC ([3]; culture number 9451): 0.5 µg/mL (≈ 0.73 µM)
- MIC ([4]; culture number 9383): 8 µg/mL (≈ 11.7 µM)
- MIC ([4]; culture number 9384): 0.5 µg/mL (≈ 0.73 µM)
- MIC [5]: 0.5 µg/mL (≈ 0.73 µM)
- MIC [6]: 0.06 µg/mL (≈ 0.0876 µM)
- MIC ([7]; culture number 231): 4 µg/mL (≈ 5.84 µM)
- MIC ([7]; culture number 9191): 8 µg/mL (≈ 11.7 µM)
- MIC ([8]; culture number 6888): 0.5 µg/mL (≈ 0.73 µM)
- MIC ([9]; culture number 3665): > 64 µg/mL
- MIC ([9]; culture number 6685): > 64 µg/mL
- MIC ([9]; culture number 9218): > 64 µg/mL
- MIC [10]: > 64 µg/mL
- MIC [11]: > 64 µg/mL
- MIC [12]: 4 µg/mL (≈ 5.84 µM)

SMILES: CC(C)(ON=C(C(=O)NC1CN(C(=O)NS(=O)(=O)N2CC(CNC(=O)c3cc(=O)c(O)c[nH]3)OC2=O)C1=O)c1csc(N)n1)C(=O)O (stereo not drawn) [E27 (b)]
- MIC [1]: 0.5 µg/mL (≈ 0.715 µM)
- MIC ([2]; culture number 9381): 128 µg/mL (≈ 183 µM)
- MIC ([2]; culture number 9382): 8 µg/mL (≈ 11.4 µM)
- MIC ([3]; culture number 9379): 0.125 µg/mL (≈ 0.179 µM)
- MIC ([3]; culture number 9380): 0.03 µg/mL (≈ 0.0429 µM)
- MIC ([3]; culture number 9451): 0.06 µg/mL (≈ 0.0858 µM)
- MIC ([4]; culture number 9383): 4 µg/mL (≈ 5.72 µM)
- MIC ([4]; culture number 9384): 0.25 µg/mL (≈ 0.357 µM)
- MIC [5]: 2 µg/mL (≈ 2.86 µM)
- MIC [6]: 0.5 µg/mL (≈ 0.715 µM)
- MIC ([7]; culture number 231): 4 µg/mL (≈ 5.72 µM)
- MIC ([7]; culture number 9191): 8 µg/mL (≈ 11.4 µM)
- MIC ([8]; culture number 9888): 0.5 µg/mL (≈ 0.715 µM)
- MIC [12]: 64 µg/mL (≈ 91.5 µM)

SMILES: Cn1cc(O)c(=O)cc1C(=O)NN1CCN(S(=O)(=O)NC(=O)N2C[C@H](NC(=O)/C(=N\OC(C)(C)C(=O)O)c3csc(N)n3)C2=O)C1=O [E42 (a)]
- MIC [1]: 0.5 µg/mL (≈ 0.716 µM)
- MIC ([2]; culture number 9381): 64 µg/mL (≈ 91.6 µM)
- MIC ([2]; culture number 9382): 4 µg/mL (≈ 5.73 µM)
- MIC ([3]; culture number 9379): 0.06 µg/mL (≈ 0.0859 µM)
- MIC ([3]; culture number 9380): < 0.015 µg/mL
- MIC ([3]; culture number 9451): 0.06 µg/mL (≈ 0.0859 µM)
- MIC ([4]; culture number 9383): 1 µg/mL (≈ 1.43 µM)
- MIC ([4]; culture number 9384): 0.5 µg/mL (≈ 0.716 µM)
- MIC [5]: 2 µg/mL (≈ 2.86 µM)
- MIC [6]: 0.5 µg/mL (≈ 0.716 µM)
- MIC ([7]; culture number 231): 2 µg/mL (≈ 2.86 µM)
- MIC ([7]; culture number 9191): 2 µg/mL (≈ 2.86 µM)
- MIC ([8]; culture number 6888): 0.25 µg/mL (≈ 0.358 µM)
- MIC ([9]; culture number 3665): > 128 µg/mL
- MIC ([9]; culture number 6685): > 128 µg/mL
- MIC ([9]; culture number 9218): > 128 µg/mL
- MIC [10]: > 128 µg/mL
- MIC [11]: > 128 µg/mL
- MIC [12]: 128 µg/mL (≈ 183 µM)
